pIC50: −log10 of the molar value. Where two headings read alike, the source gives them in different places.
Assays:
5-lipoxygenase [1] = biological target: T1, 5-lipoxygenase (Cavia porcellus, UniProt A0A286X958); test: Inhibition of the synthesis of 5-HETE and LTB4 in A-23187-stimulated guinea pig polymorphonuclear leukocytes; type: cell-based; conditions: for pIC50: in vitro
T1 construct: A-23187-stimulated guinea pig polymorphonuclear leukocytes; endogenous in cells; host or cells: guinea pig polymorphonuclear leukocytes
T1 sequence (A0A286X958 1-674): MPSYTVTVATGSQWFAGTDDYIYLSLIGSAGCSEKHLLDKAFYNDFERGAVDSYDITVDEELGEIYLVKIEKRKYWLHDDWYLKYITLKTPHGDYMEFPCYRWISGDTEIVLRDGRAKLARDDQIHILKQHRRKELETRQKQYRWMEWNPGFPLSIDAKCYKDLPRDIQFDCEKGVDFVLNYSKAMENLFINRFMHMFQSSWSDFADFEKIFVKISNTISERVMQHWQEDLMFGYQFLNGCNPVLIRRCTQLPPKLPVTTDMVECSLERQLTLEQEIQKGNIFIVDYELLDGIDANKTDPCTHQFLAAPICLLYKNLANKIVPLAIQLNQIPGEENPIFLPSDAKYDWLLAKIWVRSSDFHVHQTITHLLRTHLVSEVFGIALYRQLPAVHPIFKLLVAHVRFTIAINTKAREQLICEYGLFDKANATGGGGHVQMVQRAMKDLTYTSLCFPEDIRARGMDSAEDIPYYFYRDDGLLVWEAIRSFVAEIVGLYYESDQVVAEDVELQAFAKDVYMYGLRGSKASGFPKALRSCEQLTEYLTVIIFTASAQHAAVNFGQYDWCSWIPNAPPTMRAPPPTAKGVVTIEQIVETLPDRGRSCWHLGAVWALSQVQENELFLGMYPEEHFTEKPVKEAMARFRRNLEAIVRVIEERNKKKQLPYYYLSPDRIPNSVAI
Method: 5-Lipoxygenase inhibition is determined e.g. by measuring the percent inhibition of the synthesis of 5-HETE [(5S)-5-hydroxy-6,8,11,14-eicosa-tetraenoic acid] and leukotriene B4 (LTB4, 5,12-dihydroxy-6,8,10,14-eicosatetraenoic acid) in A-23187-stimulated guinea pig polymorphonuclear leukocytes, essentially according to radiometric thin-layer chromatogrpahic assays described by Walker and Dawson (J. Pharm. Pharmacol. 31: 778, 1979) and Jakschik and Lee (Nature 287: 51, 1980) used to measure the formation of 5-HETE and LTB4 -like products from ^14 C-arachidonic acid. IC50 values are determined graphically as the concentration of test compound at which the synthesis of 5-HETE and LTB4 -like products is reduced to 50% of their respective control values.

5-lipoxygenase [2] = test: Ex vivo inhibition of 5-lipoxygenase (A-23187-stimulated LTB4 formation in whole blood), dog
Method: (§1) Furthermore the inhibition of 5-lipoxygenase in vivo is determined after oral or i.v. administration to rats or dogs by measuring ex vivo in whole blood the inhibition of A-23187-stimulated LTB4 formation as compared to non-treated control animals.

5-lipoxygenase [3] = test: Ex vivo inhibition of 5-lipoxygenase (A-23187-stimulated LTB4 formation in whole blood), rat; conditions: about 10-100 mg/kg p.o.
Method: as §1

[4] = system: rat pleurisy model of inflammation; test: Carrageenin-induced pleurisy model of inflammation in the rat; type: in vivo; conditions: 30 mg/kg p.o. b.i.d. for two days; 48 hours after carrageenin
[5] = In vivo metabolite identification after administration of 4-(N-methylcyclohexylamino)-1,2-diacetoxynaphthalene

Compound	pIC50 (5-lipoxygenase [1]; read-out: IC50 for LTB4 formation)	inhibition of the formation of 5-HETE and leukotriene B4 (5-lipoxygenase [1]; result in words)	inhibition of 5-lipoxygenase activity ex vivo (5-lipoxygenase [2]; 1 mg/kg i.v.)	inhibition of 5-lipoxygenase activity ex vivo (5-lipoxygenase [2]; 100 mg/kg p.o.)	inhibition of 5-lipoxygenase activity ex vivo (5-lipoxygenase [3])	cell count of monocytes [4]	cell count of polymorphonuclear leukocytes [4]	exudate volume [4]	pIC50 (5-lipoxygenase [1]; read-out: IC50 for inhibition of the formation of LTB4)	in vivo metabolite [5]
CC(=O)Oc1cc(N(C)C2CCCCC2)c2ccccc2c1OC(C)=O [4-(N-methylcyclohexylamino)-1,2-diacetoxynaphthalene]	~6.00	inhibits the formation of 5-HETE [(5S)-5-hydroxy-6,8,11,14-eicosa-tetraenoic acid] and leukotriene B4	inhibits 5-lipoxygenase activity	inhibits 5-lipoxygenase activity	inhibits 5-lipoxygenase activity	lowers the cell count of polymorphonuclear leukocytes and of monocytes	lowers the cell count of polymorphonuclear leukocytes	causes inhibition of exudate volume		
CN(C1=CC(=O)C(=O)c2ccccc21)C1CCCCC1 [4-(N-methylcyclohexylamino)-1,2-naphthoquinone]									~6.30	identified as an in vivo metabolite of 4-(N-methylcyclohexylamino)-1,2-diacetoxynaphthalene

— US4882339A, “4-Amino-substituted 1,2-dihydroxynaphthalene derivatives useful in inhibiting 5-lipoxygenase activity in mammals” (Ciba-Geigy Corporation, priority 1987, dated 1989)
